Measurements taken from publication PMC9319837, “Microscale Thermophoresis and Molecular Modelling to Explore the Chelating Drug Transportation in the Milk to Infant” (Molecules, 2022).

Target: T1, human Lf (lactoferrin) (Homo sapiens, UniProt P02788)
T1 construct: gene LTF; full-length, label-free
Assay: label-free microscale thermophoresis (intrinsic fluorescence, […] nm)
Format: binding
Conditions: 0.1 M Tris pH 7.4; Lf 120 nM; CP20 7 nM to 250 μM; 10 min equilibration; iron saturation of Lf not stated

T1 sequence (P02788 20-710): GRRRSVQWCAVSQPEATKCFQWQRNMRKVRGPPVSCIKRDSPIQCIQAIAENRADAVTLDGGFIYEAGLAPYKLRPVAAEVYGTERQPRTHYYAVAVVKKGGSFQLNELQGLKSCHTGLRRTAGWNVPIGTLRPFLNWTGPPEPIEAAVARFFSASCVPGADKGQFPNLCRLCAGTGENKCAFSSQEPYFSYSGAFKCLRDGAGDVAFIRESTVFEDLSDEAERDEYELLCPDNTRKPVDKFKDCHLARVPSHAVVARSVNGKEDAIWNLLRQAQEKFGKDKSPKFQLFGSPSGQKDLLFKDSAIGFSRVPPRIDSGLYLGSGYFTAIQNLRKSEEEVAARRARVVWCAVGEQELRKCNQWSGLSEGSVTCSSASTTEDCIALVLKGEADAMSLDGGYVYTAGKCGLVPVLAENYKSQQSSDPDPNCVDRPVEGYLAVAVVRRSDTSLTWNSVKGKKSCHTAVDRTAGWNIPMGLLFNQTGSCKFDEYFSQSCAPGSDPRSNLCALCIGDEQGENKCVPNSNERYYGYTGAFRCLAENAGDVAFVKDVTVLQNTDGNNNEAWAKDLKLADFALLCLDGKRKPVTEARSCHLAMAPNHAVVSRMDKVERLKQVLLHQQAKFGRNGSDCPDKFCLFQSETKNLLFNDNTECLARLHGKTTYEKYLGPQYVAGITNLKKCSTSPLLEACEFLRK

**Q.** With `Cc1c(O)c(=O)ccn1C` [deferiprone, 1,2-dimethyl-3-hydroxypyrid-4-one] as the compound, how does the Kd read?
**A.** 8.9 × 10^−6 ± 1.6 Molar
